The values that follow are results of earlier work, collected in PMC8287861 (Frontiers in Microbiology, 2021).

The structures appear in SMILES notation. Values after ≈ are worked out from the molar mass of the structure shown. Where two headings read alike, the source gives them in different places.

The subject of data set [1] is KPC-producing strains of Klebsiella pneumoniae and blaKPC mutants. Further details: method as in Nelson et al., 2019. Particulars: ref Nelson et al., 2019.
A further data set has as its system PAM4938 VCC-1. Further details: method as in Lomovskaya et al. (2020b). Conditions: PAM4938, VCC-1, class A-CARB; ref Lomovskaya et al. (2020b).
The next data set deals with Pseudomonas aeruginosa. Further details: method as in Lomovskaya et al. (2021). Particulars: ref Lomovskaya et al. (2021); for MIC50 / MIC90: challenge panel, QPX7728 at 8 μg/ml.

In general, MIC refers to the lowest concentration found to suppress growth. In the case of `CC(C)(O/N=C(\C(=O)N[C@@H]1C(=O)N2C(C(=O)[O-])=C(C[n+]3ccccc3)CS[C@H]12)c1csc(N)n1)C(=O)O` [Ceftazidime, ceftazidime], the minimum inhibitory concentration (MIC) in data set [1] (KP1074, KPC-3, SHV-11, TEM-1/GD) is above 128 µg/mL; in data set [1] (KP1099, KPC-2, SHV-11, SHV-12, CTX-M-14/GD) it was above 128 µg/mL; in data set [1] (KP1102, KPC-3, TEM-1, SHV-11/GD), above 128 µg/mL; in data set [1] (KP1246, KPC-3, SHV-12, SHV-11/FL), above 128 µg/mL; in data set [1] (KP1252, KPC-3, TEM-1, SHV-11/FL), above 128 µg/mL; in data set [1] (KP1317, KPC-3, TEM-1, SHV-11/GD) it was above 128 µg/mL. The MIC in data set [1] (KP1500, KPC-3, TEM-1, SHV-11, CTX-M-15 OXA-1 OXA-9/IS at −48) is above 128 µg/mL; in data set [1] (KPM3191, KPC-3:: DDK duplication at aa#831 (KPC-29)) it was above 128 µg/mL; in data set [1] (KPM3192, KPC-3:: D179Y (KPC-31)), above 128 µg/mL; in data set [1] (KPM3200, KPC-3::duplication of EAVI (aa#278)), above 128 µg/mL; in data set [1] (KPM3205, KPC-3 ::duplication of KKDY (aa#273)), above 128 µg/mL; in data set [1] (KPM3210, KPC-2::D179N), above 128 µg/mL. Also, the MIC was above 128 µg/mL in data set [1] (KPM3212, deletion of ELNSAI at aa#497); above 128 µg/mL in data set [1] (KPM3213, KPC-2::D179Y (KPC-31), selected from KP1099); above 128 µg/mL in data set [1] (KPM3214, KPC-2::D179A); above 128 µg/mL in data set [1] (KPM3493, KPC-3::duplication of EL at aa#164 (KPC-25)); above 128 µg/mL in data set [1] (KPM3494, KPC-3::R167S); above 128 µg/mL in data set [1] (KPM3495, KPC-3::A175V). The MIC is above 128 µg/mL in data set [1] (KPM3511, KPC-3::P174Q); above 128 µg/mL in data set [1] (KPM3512, KPC-3:: P174L); above 128 µg/mL in data set [1] (KPM3517, KPC-3::D179Y (KPC-31)); above 128 µg/mL in data set [1] (KPM3520, Both WT and mutant KPC-3::duplication of 8aa (aa#264–271)); above 128 µg/mL in data set [1] (KPM3523, Both WT and mutant KPC-3:: deletion of EL (aa#241–242)); above 128 µg/mL in data set [1] (KPM3546, KPC-3::R164H).

Usually MIC50 stands for the lowest concentration that inhibits either 50% of growth or 50% of the strains tested, depending on the study. A word on the MIC90: it is the lowest concentration that inhibits either 90% of growth or 90% of the strains tested, depending on the study. For `CCN1CCN(C(=O)N[C@@H](C(=O)N[C@@H]2C(=O)N3[C@@H]2SC(C)(C)[C@@H]3C(=O)O)c2ccccc2)C(=O)C1=O` [Piperacillin, piperacillin], in the data set with PAM4938 VCC-1, the MIC was 16 µg/mL (≈ 30.9 µM). Moreover, in the data set on Pseudomonas aeruginosa (challenge panel (N = 290), with QPX7728, 8 or 16 μg/ml for cefepime and piperacillin, respectively), the “% of isolates shifted by QPX7728 at or below breakpoint” value is listed as 70.3%. The MIC50 in the data set on Pseudomonas aeruginosa (All (N = 290)), in the data set on Pseudomonas aeruginosa (MBL (N = 61)) and with Pseudomonas aeruginosa (No MBL (N = 229)) was above 64 µg/mL each time. The MIC90 with Pseudomonas aeruginosa (All (N = 290)), in the data set on Pseudomonas aeruginosa (MBL (N = 61)) and in the data set with Pseudomonas aeruginosa (No MBL (N = 229)) was above 64 µg/mL in each case.
